From patent US20200197526A1, “REFILLABLE DRUG DELIVERY DEVICES AND METHODS OF USE THEREOF” (President and Fellows of Harvard College, priority 2014, published 2020)

What was measured:
[1] = test system: DNA-conjugated calcium-alginate gels; assay: In vitro binding of fluorescent oligonucleotides to DNA-conjugated calcium alginate gels (FIG. 2); conditions: alginate-(T)20 calcium gel; phosphate buffer with 1 mM calcium chloride
[2] = test system: MDA-MB-231 xenograft tumors; assay: Xenograft tumor study with drug refilling; format: in vivo, J:Nu mice; conditions: 120 μg doxorubicin per animal IV (FIG. 5C)
Description: All animal experiments were performed according to established animal protocols. Tumors were created by injecting 10^6 MDA-MB-231 cells (American Type Culture Collection, VA) combined with Matrigel (BD Biosciences, CA) to a total volume of 200 μL (100 μL PBS and 100 μL Matrigel) into the hind limbs of 8 week old J:Nu (Foxn1^nu/Foxn1^nu) mice (Jackson Labs, ME). 35 days following tumor inoculation tumors were injected with alginate gels. 20 mg/mL alginate conjugated to DNA (thioT-SH or unconjugated) was mixed with doxorubicin (1.6 mg drug per mL of gel), then crosslinked with 4% wt/v CaSO4 (1.22 M) and then 50 μL of gel were injected into tumors with a 23-gauge needle. 2, 3, 4, and 5 weeks after initial tumoral gel injection, mice were injected retro-orbitally with 100 μL 0.5% DNA-conjugated alginate carrying doxorubicin (5% oxidized alginate, thioA-SH, Dye-750, 160 μg Dox-hydrazide=120 μg Dox). Throughout the study, tumor area was measured twice per week with digital calipers in two dimensions and the product of the two dimensional values was used to approximate tumor area. […]
The breast cancer MDA-MB-231 model was chosen because it is a slow-growing tumor, widely used to test chemotherapeutic strategies. […] The ability of targeted therapy to reduce tumor size was assessed by monitoring the change in tumor size in the three days following each IV administration. […]

AAAAAAAAAAAAAAAAAAAA-FAM [(A)20]
binding of fluorescently-labeled oligonucleotides to gel surface [1]: bound to the gel surface in a sequence-specific manner

COc1cccc2c1C(=O)c1c(O)c3c(c(O)c1C2=O)C[C@@](O)(C(=O)CO)C[C@@H]3O[C@H]1C[C@H](N)[C@H](O)[C@H](C)O1 [doxorubicin]
change in tumor size in the three days following each IV administration [2]: continued to grow

TTTTTTTTTTTTTTTTTTTT-FAM [(T)20]
binding of fluorescently-labeled oligonucleotides to gel surface [1]: little binding
